Assay: Bioactivation in CYP1A1 (unknown origin) transfected CHO cells assessed as CYP1A1-mediated drug activation by measuring reduction in cell viability

Row | SMILES | IC50
1 | CCCCCCc1c2c(c(C)c3c1C(=O)OC3)Oc1ccccc1O2 | 2.6 µM
2 | CCCCc1c2c(c(C)c3c1C(=O)OC3)Oc1ccccc1O2 | 0.4 µM

Source: BindingDB's records for doi:10.1016/j.ejmech.2019.111807 (Universitat De Barcelona, 2020)
